Measured values reported in patent US11649242B2, “Pyrrolopyrrole compositions as pyruvate kinase (PKR) activators” (FORMA Therapeutics, Inc., priority 2017, dated 2023).

How the values were obtained:
Format in all cases: biochemical
[1] = target: PKR(R510Q) (Homo sapiens, UniProt P30613, R510Q); experiment: Luminescence Assay Protocol (Kinase Glo Plus), PKR(R510Q/without FBP); details: PKRR510Q, without FBP; for activation at 1.54 µM: read-out: F - AC50 LUM KGP woFBP % Fold @ 1.54 μM mean; for AC50: gmean, read-out: D - AC50 LUM KGP woFBP AC50 μM gmean; for Emax: read-out: E - AC50 LUM KGP woFBP MAX % FOLD mean
Sequence of PKR(R510Q) (P30613 whole entry R510Q): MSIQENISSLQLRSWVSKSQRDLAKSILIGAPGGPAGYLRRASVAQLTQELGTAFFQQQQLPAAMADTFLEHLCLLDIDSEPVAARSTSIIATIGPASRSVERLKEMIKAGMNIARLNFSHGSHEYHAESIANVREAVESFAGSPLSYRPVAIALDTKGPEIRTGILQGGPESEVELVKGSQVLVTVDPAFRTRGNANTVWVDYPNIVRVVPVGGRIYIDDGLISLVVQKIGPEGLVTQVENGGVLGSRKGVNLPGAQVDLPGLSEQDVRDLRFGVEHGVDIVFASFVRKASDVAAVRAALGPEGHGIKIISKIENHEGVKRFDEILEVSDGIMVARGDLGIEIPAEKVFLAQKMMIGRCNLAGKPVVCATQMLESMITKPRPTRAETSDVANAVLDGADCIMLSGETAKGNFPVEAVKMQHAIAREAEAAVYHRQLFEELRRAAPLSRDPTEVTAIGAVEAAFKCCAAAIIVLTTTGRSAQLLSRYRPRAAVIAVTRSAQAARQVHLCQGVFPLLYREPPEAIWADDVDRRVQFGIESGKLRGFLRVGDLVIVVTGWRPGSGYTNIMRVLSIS
Procedure: (§1) Example 47: PKR(Wt/without FBP), PKR(G332S/with FBP), PKR(R510Q/without FBP)
(§2) The phosphorylation of Adenosine-5′-diphosphate (ADP) by various mutants of PKR was determined by the Kinase Glo Plus Assay (Promega) in the presence or absence of FBP [D-Fructose-1,6-diphosphate; BOC Sciences, CAS: 81028-91-3] as follows. Unless otherwise indicated, all reagents were purchased from Sigma-Aldrich. All reagents were prepared in buffer containing 50 mM Tris-HCl, 100 mM KCl, 5 mM MgCl2, and 0.01% Triton X100, 0.03% BSA, and 1 mM DTT. Enzyme and PEP [Phospho(enol) pyruvic acid] were added at 2× to all wells of an assay-ready plate containing serial dilutions of test compounds or DMSO vehicle. Final enzyme concentrations for PKR(wt), PKR(R510Q), and PKR(G332S) were 0.8 nM, 0.8 nM, and 10 nM respectively. Final PEP concentration was 100 μM. The Enzyme/PEP mixture was incubated with compounds for 30 minutes at RT before the assay was initiated with the addition of 2×ADP [Adenosine-5′-diphosphate] and KinaseGloPlus. Final concentration of ADP was 100 μM. […] For assays containing FBP, that reagent is added at 30 μM upon reaction initiation. Reactions were allowed to progress for 45 minutes at RT until luminescence was recorded by the BMG PHERAstar FS Multilabel Reader. All compounds were tested in triplicate at concentrations ranging from 42.5 μM to 2.2 nM in 0.83% DMSO.
(§3) Luminescence values were converted to % Fold increase by normalizing to the average of the DMSO control and multiplying by 100. Max, min, slope and AC50 were determined by the standard four parameter fit algorithm of ActivityBase XE Runner. Compounds were evaluated with three parameters—AC50, MAX % Fold, and % Fold@1.54 μM (FIG. 1). The AC50 value for a compound is the concentration […] corresponding to the midway between the maximum and minimum values of the four parameter logistic curve fit (i.e., at which the % fold increase along the four parameter logistic curve fit is halfway between MAX % Fold and MIN % Fold (% Fold Midpoint)), MAX % Fold is the highest fold increase observed at any concentration of compound, and % Fold@1.54 μM is the fold increase at a compound concentration of 1.54 μM. The parameter % Fold@1.54 μM was selected to capture elements of both the AC50 and MAX % Fold and to provide a ranking based on both potency and effect. The compound concentration of 1.54 μM was chosen as one that can optimally differentiate the set of compounds based on the range of activities observed.
(§4) As set forth in Tables 6 and 7 below, AC50 values (columns A, D, G) are defined as follows: ≤0.1 μM (+++); >0.1 μM and ≤1.0 μM (++); >1.0 μM and ≤40 μM (+); >40 μM (0). Max % FOLD values (columns B, E, H) are defined as follows: ≤75% (+); >75% and ≤250% (++); >250% and ≤500% (+++). % Fold@1.54 μM values (columns C, F, I) are defined as follows: ≤75% (+); >75% and ≤250% (++); >250% and ≤500% (+++).

[2] = target: PKR(G332S) (Homo sapiens, UniProt P30613, G332S); experiment: Luminescence Assay Protocol (Kinase Glo Plus), PKR(G332S/with FBP); details: PKRG332S, with FBP; for activation at 1.54 µM: compound 1.54 μM, read-out: C - AC50 LUM KGP FBP % Fold @ 1.54 μM mean; for AC50: gmean, read-out: A - AC50 LUM KGP FBP AC50 μM gmean; for Emax: highest % fold increase at any concentration, read-out: B - AC50 LUM KGP FBP MAX % FOLD mean
Sequence of PKR(G332S) (P30613 whole entry G332S): as the sequence (P30613 whole entry R510Q) above, with G332S, Q510R counted along it
Procedure: as §1, §2, §3, §4

[3] = target: PKR(wt) (Homo sapiens, UniProt P30613); experiment: Luminescence Assay Protocol (Kinase Glo Plus), PKR(Wt/without FBP); details: without FBP; for activation at 1.54 µM: read-out: I - AC50 LUM KGP woFBP % Fold @ 1.54 μM mean; for AC50: gmean, read-out: G - AC50 LUM KGP woFBP AC50 μM gmean; for Emax: read-out: H - AC50 LUM KGP woFBP MAX % FOLD mean
Sequence of PKR(wt) (P30613 whole entry): as the sequence (P30613 whole entry R510Q) above, with Q510R counted along it
Procedure: as §1, §2, §3, §4

[4] = highest % fold increase at any concentration

SMILES | activation at 1.54 µM ([1]; compound 1.54 μM) [%] | AC50 [1] [µM] | Emax [1, 4] [%] | activation at 1.54 µM [2] [%] | AC50 [2] [µM] | Emax [2] [%] | activation at 1.54 µM ([3]; compound 1.54 μM) [%] | AC50 [3] [µM] | Emax [3, 4] [%] | F - AC50 LUM KGP woFBP % Fold @ 1.54 μM mean ([1]; compound 1.54 μM) | E - AC50 LUM KGP woFBP MAX % FOLD mean [1, 4] | I - AC50 LUM KGP woFBP % Fold @ 1.54 μM mean ([3]; compound 1.54 μM) | H - AC50 LUM KGP woFBP MAX % FOLD mean [3, 4]
C[C@@H](O)[C@@H](C(=O)N1CC2=C(C1)CN(S(=O)(=O)c1ccc(OC(F)F)cc1)C2)c1ccccc1 (racemic) [Example 26, (2S,3R and 2R,3S)-1-(5-((4-(difluoromethoxy)phenyl)sulfonyl)-3,4,5,6-tetrahydropyrrolo[3,4-c]pyrrol-2(1H)-yl)-3-hydroxy-2-phenylbutan-1-one] | 250 to 500 | ≤ 0.1 | 250 to 500 | 75 to 250 | ≤ 0.1 | 75 to 250 | 250 to 500 | ≤ 0.1 | 250 to 500 | – | – | – | –
C[C@@H](O)[C@H](C(=O)N1CC2=C(C1)CN(S(=O)(=O)c1ccc(OC(F)F)cc1)C2)c1ccccc1 (racemic) [Example 27, (2R,3R and 2S,3S)-1-(5-((4-(difluoromethoxy)phenyl)sulfonyl)-3,4,5,6-tetrahydropyrrolo[3,4-c]pyrrol-2(1H)-yl)-3-hydroxy-2-phenylbutan-1-one] | 250 to 500 | 0.1 to 1 | 250 to 500 | 75 to 250 | ≤ 0.1 | 75 to 250 | 250 to 500 | ≤ 0.1 | 250 to 500 | – | – | – | –
O=C([C@H](CO)c1ccccc1)N1CC2=C(C1)CN(S(=O)(=O)c1cnc3c(c1)OCCO3)C2 (single isomer, unassigned) [Example 1] | 250 to 500 | – | 250 to 500 | 75 to 250 | – | 75 to 250 | 75 to 250 | – | 75 to 250 | – | – | – | –
O=C([C@@H](CO)c1ccccc1)N1CC2=C(C1)CN(S(=O)(=O)c1cnc3c(c1)OCCO3)C2 (single isomer, unassigned) [Example 2] | 75 to 250 | – | 250 to 500 | 75 to 250 | – | 75 to 250 | 75 to 250 | – | 75 to 250 | – | – | – | –
O=C(C(CO)c1ccccn1)N1CC2=C(C1)CN(S(=O)(=O)c1cnc3c(c1)OCCO3)C2 (single isomer, unassigned) [Example 3, (R or S)-1-(5-((2,3-dihydro-[1,4]dioxino[2,3-b]pyridin-7-yl)sulfonyl)-3,4,5,6-tetrahydropyrrolo[3,4-c]pyrrol-2(1H)-yl)-3-hydroxy-2-(pyridin-2-yl)propan-1-one] | – | 0.1 to 1 | – | 75 to 250 | 1 to 40 | 75 to 250 | – | ≤ 0.1 | – | ++ (>75% and ≤250% (++)) | +++ (>250% and ≤500% (+++)) | ++ (>75% and ≤250% (++)) | ++ (>75% and ≤250% (++))
O=C(C1CCCOC1)N1CC2=C(C1)CN(S(=O)(=O)c1cnc3c(c1)OCCO3)C2 (single isomer, unassigned) [Example 5, (R or S)-(5-((2,3-dihydro-[1,4]dioxino[2,3-b]pyridin-7-yl)sulfonyl)-3,4,5,6-tetrahydropyrrolo[3,4-c]pyrrol-2(1H)-yl)(tetrahydro-2H-pyran-3-yl)methanone] | 75 to 250 | 1 to 40 | 250 to 500 | 75 to 250 | 1 to 40 | 75 to 250 | 75 to 250 | 0.1 to 1 | 75 to 250 | – | – | – | –
COCCC(=O)N1CC2=C(C1)CN(S(=O)(=O)c1ccc3c(c1)OCCO3)C2 [Example 57, 1-(5-((2,3-dihydrobenzo[b][1,4]dioxin-6-yl)sulfonyl)-3,4,5,6-tetrahydropyrrolo[3,4-c]pyrrol-2(1H)-yl)-3-methoxypropan-1-one] | 75 to 250 | 0.1 to 1 | 75 to 250 | 75 to 250 | ≤ 0.1 | 75 to 250 | – | – | – | – | – | – | –
COCCC(=O)N1CC2=C(C1)CN(S(=O)(=O)c1ccc3occc3c1)C2 [Example 58, 1-(5-(benzofuran-5-ylsulfonyl)-3,4,5,6-tetrahydropyrrolo[3,4-c]pyrrol-2(1H)-yl)-3-methoxypropan-1-one] | 75 to 250 | 0.1 to 1 | 250 to 500 | 75 to 250 | ≤ 0.1 | 75 to 250 | – | – | – | – | – | – | –
